Experimental data published in PubChem BioAssay AID1963841 (Molecular Pharmacology Branch, DTP, NCI, 2024).

Test system: 439559-082-T-J2-PDC spheroid viability
Experiment: Anticancer human tumor 439559-082-T-J2-PDC patient-derived colon adenocarcinoma cell line growth inhibition [POLQ]
Conditions: spheroids with HUVEC and MSC; for IC50: curve of first compound; for viability, T/C: stronger effect = lower value
Outline: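 Growth inhibition in 3D: complex spheroids (tumor PDC, HUVEC, MSC) treated with POLQ inhibitor combinations; where Cmax unknown, highest tested concentration 10 microM, except SN-38 at 1 microM.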

[1] = second compound 0.0316 µM, first compound 0.0316 µM
[2] = second compound 0.0316 µM, first compound 0.1 µM
[3] = second compound 0.0316 µM, first compound 0.316 µM
[4] = second compound 0.0316 µM, first compound 1 µM
[5] = second compound 0.0316 µM, first compound 3.16 µM
[6] = second compound 0.0316 µM, first compound 10 µM
[7] = second compound 0.1 µM, first compound 0.0316 µM
[8] = second compound 0.1 µM, first compound 0.1 µM
[9] = second compound 0.1 µM, first compound 0.316 µM
[10] = second compound 0.1 µM, first compound 1 µM
[11] = second compound 0.1 µM, first compound 3.16 µM
[12] = second compound 0.1 µM, first compound 10 µM
[13] = second compound 0.316 µM, first compound 0.0316 µM
[14] = second compound 0.316 µM, first compound 0.1 µM
[15] = second compound 0.316 µM, first compound 0.316 µM
[16] = second compound 0.316 µM, first compound 1 µM
[17] = second compound 0.316 µM, first compound 3.16 µM
[18] = second compound 0.316 µM, first compound 10 µM
[19] = second compound 1 µM, first compound 0.0316 µM
[20] = second compound 1 µM, first compound 0.1 µM
[21] = second compound 1 µM, first compound 0.316 µM
[22] = second compound 1 µM, first compound 1 µM
[23] = second compound 1 µM, first compound 3.16 µM
[24] = second compound 1 µM, first compound 10 µM
[25] = second compound 3.16 µM, first compound 0.0316 µM
[26] = second compound 3.16 µM, first compound 0.1 µM
[27] = second compound 3.16 µM, first compound 0.316 µM
[28] = second compound 3.16 µM, first compound 1 µM
[29] = second compound 3.16 µM, first compound 3.16 µM
[30] = second compound 3.16 µM, first compound 10 µM
[31] = second compound 10 µM, first compound 0.0316 µM
[32] = second compound 10 µM, first compound 0.1 µM
[33] = second compound 10 µM, first compound 0.316 µM
[34] = second compound 10 µM, first compound 1 µM
[35] = second compound 10 µM, first compound 3.16 µM
[36] = second compound 10 µM, first compound 10 µM
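Also: spheroids exposed to compounds for seven days before readout.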
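For viability, T/C in this document: 100% = DMSO vehicle control viability.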

Structure (SMILES): CNCc1ccc(-c2[nH]c3cc(F)cc4c3c2CCNC4=O)cc1 + Nc1ccc(C#CCN(C(=O)Cc2ncc(C(F)(F)F)cc2C(F)(F)F)c2ccc(F)cc2)nn1
- IC50 (second compound 0.0316 µM): > 10 µM
- IC50 (second compound 0.1 µM): > 10 µM
- IC50 (second compound 0.316 µM): > 10 µM
- IC50 (second compound 1 µM): > 10 µM
- IC50 (second compound 3.16 µM): > 10 µM
- IC50 (second compound 10 µM): > 10 µM
- viability, T/C [1]: 91.6%
- viability, T/C [2]: 106%
- viability, T/C [3]: 102%
- viability, T/C [4]: 87.2%
- viability, T/C [5]: 116%
- viability, T/C [6]: 97.7%
- viability, T/C [7]: 100%
- viability, T/C [8]: 95.3%
- viability, T/C [9]: 97.5%
- viability, T/C [10]: 101%
- viability, T/C [11]: 102%
- viability, T/C [12]: 110%
- viability, T/C [13]: 109%
- viability, T/C [14]: 108%
- viability, T/C [15]: 87.4%
- viability, T/C [16]: 96.4%
- viability, T/C [17]: 105%
- viability, T/C [18]: 101%
- viability, T/C [19]: 101%
- viability, T/C [20]: 97.4%
- viability, T/C [21]: 105%
- viability, T/C [22]: 90.5%
- viability, T/C [23]: 107%
- viability, T/C [24]: 122%
- viability, T/C [25]: 100%
- viability, T/C [26]: 112%
- viability, T/C [27]: 111%
- viability, T/C [28]: 97.4%
- viability, T/C [29]: 110%
- viability, T/C [30]: 98.2%
- viability, T/C [31]: 94.8%
- viability, T/C [32]: 104%
- viability, T/C [33]: 110%
- viability, T/C [34]: 102%
- viability, T/C [35]: 104%
- viability, T/C [36]: 105%

Structure (SMILES): COc1cccc(OCCCN)c1-c1cc(Nc2cnc(C#N)cn2)n[nH]1 + Nc1ccc(C#CCN(C(=O)Cc2ncc(C(F)(F)F)cc2C(F)(F)F)c2ccc(F)cc2)nn1
- IC50 (second compound 0.0316 µM): 0.336 µM
- IC50 (second compound 0.1 µM): 0.293 µM
- IC50 (second compound 0.316 µM): 0.32 µM
- IC50 (second compound 1 µM): 0.29 µM
- IC50 (second compound 3.16 µM): 0.223 µM
- IC50 (second compound 10 µM): 0.0702 µM
- viability, T/C (second compound 0.0316 µM, first compound 0.00316 µM): 105%
- viability, T/C (second compound 0.0316 µM, first compound 0.01 µM): 95.1%
- viability, T/C [1]: 82.2%
- viability, T/C [2]: 68.4%
- viability, T/C [3]: 58.2%
- viability, T/C [4]: 23.1%
- viability, T/C (second compound 0.1 µM, first compound 0.00316 µM): 104%
- viability, T/C (second compound 0.1 µM, first compound 0.01 µM): 99.3%
- viability, T/C [7]: 79.9%
- viability, T/C [8]: 66.7%
- viability, T/C [9]: 53%
- viability, T/C [10]: 22.8%
- viability, T/C (second compound 0.316 µM, first compound 0.00316 µM): 101%
- viability, T/C (second compound 0.316 µM, first compound 0.01 µM): 97.6%
- viability, T/C [13]: 85.4%
- viability, T/C [14]: 69%
- viability, T/C [15]: 51.6%
- viability, T/C [16]: 24.8%
- viability, T/C (second compound 1 µM, first compound 0.00316 µM): 106%
- viability, T/C (second compound 1 µM, first compound 0.01 µM): 105%
- viability, T/C [19]: 76.8%
- viability, T/C [20]: 70.6%
- viability, T/C [21]: 50.6%
- viability, T/C [22]: 22.4%
- viability, T/C (second compound 3.16 µM, first compound 0.00316 µM): 106%
- viability, T/C (second compound 3.16 µM, first compound 0.01 µM): 95.6%
- viability, T/C [25]: 83.2%
- viability, T/C [26]: 67.7%
- viability, T/C [27]: 41.6%
- viability, T/C [28]: 20.4%
- viability, T/C (second compound 10 µM, first compound 0.00316 µM): 107%
- viability, T/C (second compound 10 µM, first compound 0.01 µM): 96%
- viability, T/C [31]: 69.3%
- viability, T/C [32]: 42.4%
- viability, T/C [33]: 23.8%
- viability, T/C [34]: 20.7%

Structure (SMILES): O=C(c1cc(Cc2n[nH]c(=O)c3ccccc23)ccc1F)N1CCN(C(=O)C2CC2)CC1 + Nc1ccc(C#CCN(C(=O)Cc2ncc(C(F)(F)F)cc2C(F)(F)F)c2ccc(F)cc2)nn1
- IC50 (second compound 0.0316 µM): > 10 µM
- IC50 (second compound 0.1 µM): > 10 µM
- IC50 (second compound 0.316 µM): > 10 µM
- IC50 (second compound 1 µM): > 10 µM
- IC50 (second compound 3.16 µM): > 10 µM
- IC50 (second compound 10 µM): > 10 µM
- viability, T/C [1]: 93.4%
- viability, T/C [2]: 97.3%
- viability, T/C [3]: 93.4%
- viability, T/C [4]: 101%
- viability, T/C [5]: 94.3%
- viability, T/C [6]: 98%
- viability, T/C [7]: 93.1%
- viability, T/C [8]: 106%
- viability, T/C [9]: 89.1%
- viability, T/C [10]: 117%
- viability, T/C [11]: 92.8%
- viability, T/C [12]: 99.8%
- viability, T/C [13]: 91.5%
- viability, T/C [14]: 105%
- viability, T/C [15]: 86.8%
- viability, T/C [16]: 96.1%
- viability, T/C [17]: 106%
- viability, T/C [18]: 96.9%
- viability, T/C [19]: 104%
- viability, T/C [20]: 107%
- viability, T/C [21]: 94.1%
- viability, T/C [22]: 108%
- viability, T/C [23]: 84.7%
- viability, T/C [24]: 104%
- viability, T/C [25]: 88%
- viability, T/C [26]: 116%
- viability, T/C [27]: 98.3%
- viability, T/C [28]: 106%
- viability, T/C [29]: 103%
- viability, T/C [30]: 98.3%
- viability, T/C [31]: 92.8%
- viability, T/C [32]: 87.9%
- viability, T/C [33]: 95.5%
- viability, T/C [34]: 90.7%
- viability, T/C [35]: 98.2%
- viability, T/C [36]: 103%
